In one test the test system is ErbB2 mRNA. Nature of the test: ErbB2 mRNA by qRT-PCR in SKBR3 breast cancer cells. It is filed as cell-based, human. The text has this:
(§1) RNA was extracted from the cells using TRI-REAGENT™ (Molecular Research Center, Cincinnati, Ohio) and subjected to reverse transcription—polymerase chain reaction (“RT-PCR”) using the TITAN ONE TUBE RT-PCR KIT™ system (Hoffmann-La Roche). Primers were: EGFR: 5′-[…]-3′ (SEQ ID NO:1) (forward, E1S) 5′-[…]-3′ (SEQ ID NO:2) (reverse, E1A); ErbB-2: 5′-[…]-3′ (SEQ ID NO:3) (forward, E2S2), 5′-[…]-3′ (SEQ ID NO:4) (reverse, E2A2); GAPDH: 5′-[…]-3′ (SEQ ID NO:5) (forward, GAPDH3S), 5′-[…]-3′ (SEQ ID NO:6) (reverse, GAPDH3A). Conditions for reverse transcription and amplification of the EGFR coding sequence were: 50° C., 30 minutes; 94° C., 2 minutes; 10 cycles (94° C., 30 seconds; 64.9° C., 30 seconds; 68° C., 90 seconds); 30 cycles (94° C., 30 seconds; 64.9° C., 30 seconds; 68° C., 90 seconds +5 seconds autoextension) and 68° C., 7 minutes. […]
(§2) Quantitative RT-PCR (“qRT-PCR”) was performed in the ABI PRISM 7000™ Sequence Detector (Applied Biosystems, Foster City, Calif.) using human EGFR, ErbB2, and FASN TaqMan® Gene Expression Assay systems (Applied Biosystems; Assay IDs: Hs00193306_m1, Hs00170433_m1, Hs00188012_m1) according to the manufacturer's instructions. β-actin and GAPDH (VIC™ and FAM labeled pre-developed TaqMan® Assay reagents, Applied Biosystems) were used as endogenous controls. EGFR, ErbB2, and FASN mRNA expression were calculated as described previously (Grunt, ibid).

In test [1] the test system is A2780 ovarian cancer cells. Nature of the test: Formazan dye (MTT) in-vitro cell growth assay, A2780. It is filed as cell-based. The settings on record: for IC50: Homo sapiens, 72 h. How it is done: Effect of FAS and ErbB inhibition on A2780 ovarian cancer cells (OCC). […] Cells were grown for three days in the presence of vehicle (0.1% DMSO) or synthetic inhibitor before cell number was estimated. Data in the charts represent means +/−SD of triplicate measurements.
Cells were plated at 0.5−5×10^3/well in 96-well plates. After adhesion, media ±drugs alone or in combination were added. Cell numbers were estimated after 3-5 days by using a colorimetric formazan dye assay (Biomedica, Vienna, Austria). Results (mean±SD, n=3) were expressed in percent of untreated (solvent) control. Statistical analysis of data from drug combination treatment experiments was performed using one-factorial ANOVA followed by Scheffe-test.
(§3) Yellow MTT (3-(4,5-Dimethylthiazol-2-yl)-2,5-diphenyltetrazolium bromide, a tetrazole) is reduced to purple formazan in the mitochondria of living cells (see Mosmann, T., J. Immunol. Methods, 65(1-2): 55-63, 1983).

Test [2] concerns EGFR mRNA. In words: EGFR mRNA by qRT-PCR in SKBR3 breast cancer cells. It is filed as cell-based. Conditions: Homo sapiens, SK-BR-3, read-out: IC50, down-regulation of EGFR mRNA.
Source text: as §1, §2

In a further test the test system is FASN protein. In words: FASN protein level by Western blotting in A2780 cells. It is filed as cell-based.
In test [3] the test system is EGFR mRNA. Nature of the test: EGFR mRNA by RT-PCR and qRT-PCR in A2780 cells. It is filed as cell-based, human. How it is done: RNA was extracted from the cells using TRI-REAGENT™ (Molecular Research Center, Cincinnati, Ohio) and subjected to reverse transcription—polymerase chain reaction (“RT-PCR”) using the TITAN ONE TUBE RT-PCR KIT™ system (Hoffmann-La Roche). […] Conditions for ErbB2 and GAPDH were: 50° C., 30 minutes; 94° C., 2 minutes; 10 cycles (94° C., 30 seconds; 51° C., 30 seconds; 68° C., 45 seconds); 25 cycles (94° C., 30 seconds; 51° C., 30 seconds; 68° C., 45 seconds +5 seconds autoextension) and 68° C., 7 minutes. […] Fragments were electrophoresed and stained with ethidium bromide.
as §2

The subject of another test is FASN mRNA. Nature of the test: FASN mRNA expression by qRT-PCR in A2780 cells. It is filed as cell-based, human.
Source text: RNA was extracted from the cells using TRI-REAGENT™ (Molecular Research Center, Cincinnati, Ohio) and subjected to reverse transcription—polymerase chain reaction (“RT-PCR”) using the TITAN ONE TUBE RT-PCR KIT™ system (Hoffmann-La Roche). Primers were: EGFR: 5′-[…]-3′ (SEQ ID NO:1) (forward, E1S) 5′-[…]-3′ (SEQ ID NO:2) (reverse, E1A); ErbB-2: 5′-[…]-3′ (SEQ ID NO:3) (forward, E2S2), 5′-[…]-3′ (SEQ ID NO:4) (reverse, E2A2); GAPDH: 5′-[…]-3′ (SEQ ID NO:5) (forward, GAPDH3S), 5′-[…]-3′ (SEQ ID NO:6) (reverse, GAPDH3A). Conditions for reverse transcription and amplification of the EGFR coding sequence were: 50° C., 30 minutes; 94° C., 2 minutes; 10 cycles (94° C., 30 seconds; 64.9° C., 30 seconds; 68° C., 90 seconds); 30 cycles (94° C., 30 seconds; 64.9° C., 30 seconds; 68° C., 90 seconds +5 seconds autoextension) and 68° C., 7 minutes. Conditions for ErbB2 and GAPDH were: 50° C., 30 minutes; 94° C., 2 minutes; 10 cycles (94° C., 30 seconds; 51° C., 30 seconds; 68° C., 45 seconds); 25 cycles (94° C., 30 seconds; 51° C., 30 seconds; 68° C., 45 seconds +5 seconds autoextension) and 68° C., 7 minutes. DNA products had the following sizes: EGFR: 1452 bp, ErbB2: 900 bp, GAPDH: 488 bp. Fragments were electrophoresed and stained with ethidium bromide.
as §2

In test [4] the test system is SKOV3 ovarian cancer cells. In words: Formazan dye (MTT) in-vitro cell growth assay, SKOV3. It is filed as cell-based. How it is done: Cells were plated at 0.5−5×10^3/well in 96-well plates. After adhesion, media ±drugs alone or in combination were added. Cell numbers were estimated after 3-5 days by using a colorimetric formazan dye assay (Biomedica, Vienna, Austria). […] Statistical analysis of data from drug combination treatment experiments was performed using one-factorial ANOVA followed by Scheffe-test.
as §3

Where [5] appears, read: b102: within three days, pelitinib at doses as low as 3 μM.

In brackets after ≈: the same amount, converted by molar mass. Entries after “also recorded” stand apart in the source; their conditions may differ. Read-outs that look alike come from different tables or passages of the source.

Consider one compound from patent US20090325877A1, “Combination Product of Receptor Tyrosine Kinase Inhibitor and Fatty Acid Synthase Inhibitor for Treating Cancer” (Wyeth, priority 2008, published 2009).

As to `C=C1C(=O)OC(CCCCCCCC)C1C(=O)O` (stereo not shown) [C75, tetrahydro-3-methylene-2-oxo-5-n-octyl-4-furancarboxylic acid], in the test on ErbB2 mRNA, the “ErbB2 mRNA, effect in words” value is recorded as “dose-dependent decline; also recorded: dose-dependent down-regulation”. Besides, the “in vitro growth inhibition (in words)” value in test [1] (A2780, MTT assay, single drug) is on record as “growth inhibitory activity”; in test [4] (MTT assay, single drug), “growth inhibitory activity”. The IC50 in test [1] (A2780 OCC, each individual inhibitor, 50% reduction of cell growth, three days, n = 3-5, read-out: IC50 (μM) Mean +/− SD) was found to be 21.9 µM; in test [1] (A2780 ovarian cancer cells, grown three days with inhibitor, read-out: IC50, growth of OCC (MTT assay)), 22 µM; in the test with EGFR mRNA [2] it was 7.5 µg/mL (≈ 29.5 µM); in the test with FASN protein (Homo sapiens, read-out: IC50, down-regulation of FASN protein) it was 4.15 µg/mL (≈ 16.3 µM); in the test with EGFR mRNA [3] (Homo sapiens, 72 h, after 3 days, read-out: IC50, down-regulation of EGFR mRNA), 6.5 µg/mL (≈ 25.6 µM); with FASN mRNA (Homo sapiens, 72 h, after 3 days, qRT-PCR, read-out: IC50, down-regulation of FASN mRNA expression), 5.25 µg/mL (≈ 20.6 µM). Further, the “IT50, FASN protein” value with FASN protein turned out to be 40 h. In the test on FASN protein (setting [5]), the “FASN protein expression, effect in words” value is given as “shut-down”. Also, in the test with EGFR mRNA [3], the “EGFR mRNA, effect in words” value was “slowly and concordantly reduces”. Besides, in the test with EGFR mRNA [3] (at 7 μg/ml), the “IT50, EGFR mRNA” value was “about 29 hours”. The “IT50 (time of exposure after which a 50% inhibition is obtained), FASN mRNA” value in the test on FASN mRNA (at 7 μg/ml) turned out to be 21.5 h. The “FASN mRNA expression, effect in words” value in the test with FASN mRNA (setting [5]) is “shut-down”. In test [4] (Homo sapiens, SK-OV-3, 10 μg/ml C75 on its own), the inhibition at 10 µg/mL lay within 50 to 55%.
